This is an account of results in patent US11590116B2 (THERAVANCE BIOPHARMA R&D IP, LLC, priority 2019, dated 2023).

A value given as a limit tells only on which side of the number the result lay.

Assay [1] deals with T1, recombinant human ALK5 (TGF-βR1) protein (Homo sapiens, UniProt P36897).
T1 construct: purchased Life Technologies PR9075A
T1 sequence (P36897 34-503): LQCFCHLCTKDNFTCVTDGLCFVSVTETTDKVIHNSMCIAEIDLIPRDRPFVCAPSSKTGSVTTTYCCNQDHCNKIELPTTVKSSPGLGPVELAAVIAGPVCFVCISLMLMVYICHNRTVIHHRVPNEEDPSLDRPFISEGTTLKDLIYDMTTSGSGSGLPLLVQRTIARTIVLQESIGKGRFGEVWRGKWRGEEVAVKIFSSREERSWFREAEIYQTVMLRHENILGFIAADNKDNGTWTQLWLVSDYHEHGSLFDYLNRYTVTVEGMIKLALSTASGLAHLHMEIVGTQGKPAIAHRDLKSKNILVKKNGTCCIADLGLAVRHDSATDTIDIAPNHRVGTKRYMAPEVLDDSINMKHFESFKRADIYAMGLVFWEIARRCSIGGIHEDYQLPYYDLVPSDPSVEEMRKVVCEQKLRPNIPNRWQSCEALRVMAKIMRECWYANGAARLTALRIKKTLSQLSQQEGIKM
In words: Biochemical ALK5 (TGF-βR1) assay to measure pKi (LANCE Ultra ULight kinase assay). To be noted: apparent pKi from pIC50 by Cheng-Prusoff, read-out: ALK5 pKi (converted). The method, boiled down:
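Compounds (10 μM to 25 pM) preincubated 60 minutes at room temperature with enzyme, then reaction run 60 minutes at 37° C with ATP added as 125 μM (5× final). Stopped with EDTA plus Eu-anti-phospho-Topoisomerase 2-alpha (Thr1342) antibody, TR-FRET read at 665 nm; pIC50 converted to pKi via Cheng-Prusoff.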

The test system of assay [2] is TGF-β-stimulated SMAD3 phosphorylation in BEAS-2B cells. The experiment in a line: Cellular ALK5 potency assay, inhibition of TGF-β stimulated pSMAD3 formation in BEAS-2B cells. It is filed as cell-based. Conditions: Homo sapiens; inhibition of TGF-β stimulated pSMAD3 formation, BEAS-2B cells; read-out: BEAS2B pIC50 (converted). The gist of the method:
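AlphaLISA pSMAD3 read-out, beads incubated overnight. Human BEAS-2B cells: 1 h compound preincubation (37 °C, 5% CO2), then 30 min TGF-β at 10 ng/mL final, immediate lysis. Values are pIC50 relative to stimulated, compound-free baseline.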

`Cc1cccc(-c2[nH]cnc2-c2ccc3ncc(NC4CC5(CNC5)C4)cc3c2)n1` [Compound 200, N-(2-azaspiro[3.3]heptan-6-yl)-6-[5-(6-methyl-2-pyridyl)-1H-imidazol-4-yl]quinolin-3-amine]: the Ki in assay [1] was 0.0398 to 0.316 nM. Further, the IC50 in assay [2] is 200 to 1260 nM.
In the same order, the values of `Cc1cccc(-c2[nH]cnc2-c2ccc3ncc(-c4cccc(C(=O)OC5CNC5)c4)cc3c2)n1` [Compound 197, azetidin-3-yl 3-[6-[5-(6-methyl-2-pyridyl)-1H-imidazol-4-yl]-3-quinolyl]benzoate] are 0.0398 to 0.316 nM and 25.1 to 158 nM.
For `Cc1cccc(-c2nnn(Cc3ccccc3)c2-c2ccc3ncc(-c4cn[nH]c4)cc3n2)n1` [Compound 170, 2-[3-benzyl-5-(6-methyl-2-pyridyl)triazol-4-yl]-7-(1H-pyrazol-4-yl)-1,5-naphthyridine], in that order: 0.0398 to 0.316 nM and 25.1 to 158 nM.
On to `Cc1nc(-c2n[nH]cc2-c2ccc3ncc(-c4ncn5c4NCC5)cc3n2)ccc1F` [Compound 284, 7-(2,3-dihydro-1H-imidazo[1,5-a]imidazol-7-yl)-2-[3-(5-fluoro-6-methyl-2-pyridyl)-1H-pyrazol-4-yl]-1,5-naphthyridine], for which the Ki in assay [1] is 0.0398 to 0.316 nM. Moreover, the IC50 in assay [2] was 25.1 to 158 nM.
In the case of `Cc1nc(-c2n[nH]cc2-c2ccc3ncc(-c4cccn(C)c4=O)cc3n2)ccc1F` [Compound 674, 3-[6-[3-(5-fluoro-6-methyl-2-pyridyl)-1H-pyrazol-4-yl]-1,5-naphthyridin-3-yl]-1-methyl-pyridin-2-one], in assay [1], the Ki is 0.0398 to 0.316 nM. Also, the IC50 in assay [2] was less than 20 nM.
In the same order, the values of `Cc1cccc(-c2n[nH]cc2-c2ccc3nccc(C(=O)NCCCC[C@H](NC(=O)[C@@H](C)N)C(=O)O)c3n2)n1` (racemic) [Compound 804, rac-(2S)-6-[[6-[3-(6-methyl-2-pyridyl)-1H-pyrazol-4-yl]-1,5-naphthyridine-4-carbonyl]amino]-2-[[rac-(2R)-2-aminopropanoyl]amino]hexanoic acid] are 0.398 to 3.16 nM and 1580 to 10000 nM.
With `Cc1cccc(-c2[nH]cnc2-c2ccc3ncc(C(=O)OC[C@H]4CCCCN4)cc3c2)n1` [Compound 884, (R)-piperidin-2-ylmethyl 6-(5-(6-methylpyridin-2-yl)-1H-imidazol-4-yl)quinoline-3-carboxylate], the Ki in assay [1] was 0.398 to 3.16 nM. The IC50 in assay [2] is 25.1 to 158 nM.
With `Cc1cccc(-c2[nH]cnc2-c2ccc3ncc(-c4nc(C(=O)OCCN5CCNCC5)cs4)cc3c2)n1` [Compound 1145, 2-piperazin-1-ylethyl 2-[6-[5-(6-methyl-2-pyridyl)-1H-imidazol-4-yl]-3-quinolyl]thiazole-4-carboxylate], in assay [1], the Ki was 0.0398 to 0.316 nM. Besides, in assay [2], the IC50 was 25.1 to 158 nM.
On to `Cc1cccc(-c2n[nH]cc2-c2ccc3nccc(NC(=O)CN4CCOCC4)c3n2)n1` [Compound 840, N-[6-[3-(6-methyl-2-pyridyl)-1H-pyrazol-4-yl]-1,5-naphthyridin-4-yl]-2-morpholino-acetamide], for which the Ki in assay [1] was 0.0398 to 0.316 nM. Besides, the IC50 in assay [2] was 25.1 to 158 nM.
Consider `Cc1cccc(-c2[nH]cnc2-c2ccc3ncc(-c4cnc(C(=O)O[C@H]5CCNC5)nc4)cc3c2)n1` [Compound 1072, [(3S)-pyrrolidin-3-yl] 5-[6-[5-(6-methyl-2-pyridyl)-1H-imidazol-4-yl]-3-quinolyl]pyrimidine-2-carboxylate], for which the Ki in assay [1] is 0.0398 to 0.316 nM. Besides, the IC50 in assay [2] is 200 to 1260 nM.
Take `CCN1CCC(N(C)c2cnc3ccc(-c4c[nH]nc4-c4cccc(C)n4)nc3c2)CC1` [Compound 662, N-(1-ethyl-4-piperidyl)-N-methyl-6-[3-(6-methyl-2-pyridyl)-1H-pyrazol-4-yl]-1,5-naphthyridin-3-amine]: the Ki in assay [1] was 0.0398 to 0.316 nM. Moreover, the IC50 in assay [2] was 25.1 to 158 nM.
For the molecule `Cc1cccc(-c2[nH]cnc2-c2ccc3ncc(-c4nc(C(=O)O[C@@H]5CCNC5)cs4)cc3c2)n1` [Compound 743, [(3R)-pyrrolidin-3-yl]2-[6-[5-(6-methyl-2-pyridyl)-1H-imidazol-4-yl]-3-quinolyl]thiazole-4-carboxylate], the Ki in assay [1] was 0.0398 to 0.316 nM. In assay [2], the IC50 is 25.1 to 158 nM.
For `Cc1cccc(-c2[nH]cnc2-c2ccc3ncc(-c4cnn(C5CCCNC5)c4)cc3c2)n1` (stereo not shown) [Compound 405, 6-[5-(6-methyl-2-pyridyl)-1H-imidazol-4-yl]-3-[1-(3-piperidyl)pyrazol-4-yl]quinoline], the Ki in assay [1] is less than 0.0316 nM. In addition, in assay [2], the IC50 is 25.1 to 158 nM.
On to `Cc1cccc(-c2[nH]cnc2-c2ccc3ncc(-c4cccc(C(=O)OCC5CNC5)c4)cc3c2)n1` [Compound 231, azetidin-3-ylmethyl 3-[6-[5-(6-methyl-2-pyridyl)-1H-imidazol-4-yl]-3-quinolyl]benzoate], for which, in assay [1], the Ki was 0.0398 to 0.316 nM. Moreover, the IC50 in assay [2] is 25.1 to 158 nM.
For the molecule `CNCCn1cc(-c2cnc3ccc(-c4c(-c5cccc(C)n5)nnn4Cc4ccccc4)cc3c2)cn1` [Compound 498, 2-[4-[6-[3-benzyl-5-(6-methyl-2-pyridyl)triazol-4-yl]-3-quinolyl]pyrazol-1-yl]-N-methyl-ethanamine], the Ki in assay [1] is 0.0398 to 0.316 nM. Moreover, the IC50 in assay [2] was 25.1 to 158 nM.
Take `Cc1ccc(S(=O)(=O)NCC(=O)Nc2cnc3ccc(-c4c[nH]nc4-c4cccc(C)n4)nc3c2)cc1` [Compound 57, N-[6-[3-(6-methyl-2-pyridyl)-1H-pyrazol-4-yl]-1,5-naphthyridin-3-yl]-2-(p-tolylsulfonylamino)acetamide]: the Ki in assay [1] is 0.0398 to 0.316 nM. Moreover, the IC50 in assay [2] was 25.1 to 158 nM.
In the case of `Cc1cccc(-c2n[nH]cc2-c2ccc3ncc(-c4cccn(C)c4=O)cc3n2)n1` [Compound 12, 1-methyl-3-[6-[3-(6-methyl-2-pyridyl)-1H-pyrazol-4-yl]-1,5-naphthyridin-3-yl]pyridin-2-one], the Ki in assay [1] was less than 0.0316 nM. In assay [2], the IC50 is less than 20 nM.
As to `Cc1cccc(-c2[nH]cnc2-c2ccc3ncc(NCCN4C[C@@H](C)N[C@@H](C)C4)cc3c2)n1` [Compound 313, N-(2-((3R,5S)-3,5-dimethylpiperazin-1-yl)ethyl)-6-(5-(6-methylpyridin-2-yl)-1H-imidazol-4-yl)quinolin-3-amine], in assay [1], the Ki was 0.0398 to 0.316 nM. Besides, the IC50 in assay [2] was 25.1 to 158 nM.
Consider `Cc1cccc(-c2[nH]cnc2-c2ccc3ncc(NCCN4CCC[C@H](N)C4)cc3c2)n1` [Compound 623, N-[2-[(3S)-3-amino-1-piperidyl]ethyl]-6-[5-(6-methyl-2-pyridyl)-1H-imidazol-4-yl]quinolin-3-amine], for which the Ki in assay [1] is 0.0398 to 0.316 nM. Besides, the IC50 in assay [2] is 200 to 1260 nM.
On to `Cc1cccc(-c2[nH]cnc2-c2ccc3ncc(-c4csc(C(=O)O[C@@H]5CCNC5)n4)cc3c2)n1` [Compound 1104, [(3R)-pyrrolidin-3-yl] 4-[6-[5-(6-methyl-2-pyridyl)-1H-imidazol-4-yl]-3-quinolyl]thiazole-2-carboxylate], for which, in assay [1], the Ki was 0.0398 to 0.316 nM. The IC50 in assay [2] was 25.1 to 158 nM.
As for `Cc1cccc(-c2n[nH]cc2-c2ccc3ncc(-c4cnn5c4NCC5)cc3n2)n1` [Compound 570, 7-(2,3-dihydro-1H-imidazo[1,2-b]pyrazol-7-yl)-2-[3-(6-methyl-2-pyridyl)-1H-pyrazol-4-yl]-1,5-naphthyridine], the Ki in assay [1] was less than 0.0316 nM. The IC50 in assay [2] was less than 20 nM.
Consider `Cc1cccc(-c2[nH]cnc2-c2ccc3ncc(-c4cn5c(n4)CNCC5)cc3n2)n1` [Compound 414, 2-(5-(6-methylpyridin-2-yl)-1H-imidazol-4-yl)-7-(5,6,7,8-tetrahydroimidazo[1,2-a]pyrazin-2-yl)-1,5-naphthyridine], for which, in assay [1], the Ki is 0.0398 to 0.316 nM. Besides, in assay [2], the IC50 was 25.1 to 158 nM.
`Cc1cccc(-c2[nH]cnc2-c2ccc3ncc(C4=CC(N)CCC4)cc3c2)n1` (stereo not shown) [Compound 138, 3-[6-[5-(6-methyl-2-pyridyl)-1H-imidazol-4-yl]-3-quinolyl]cyclohex-2-en-1-amine]: in assay [1], the Ki was 0.0398 to 0.316 nM. In addition, in assay [2], the IC50 is 25.1 to 158 nM.
`Cc1cccc(-c2n[nH]cc2-c2ccc3ncc(-c4cnc(O)nc4)cc3n2)n1` [Compound 69, 5-[6-[3-(6-methyl-2-pyridyl)-1H-pyrazol-4-yl]-1,5-naphthyridin-3-yl]pyrimidin-2-ol]: in assay [1], the Ki is 0.0398 to 0.316 nM. Also, in assay [2], the IC50 was 1580 to 10000 nM.
For the molecule `Cc1nc(-c2n[nH]cc2-c2ccc3ncc(-c4nc5c([nH]4)CCNCC5)cc3n2)ccc1F` [Compound 611, 2-[6-[3-(5-fluoro-6-methyl-2-pyridyl)-1H-pyrazol-4-yl]-1,5-naphthyridin-3-yl]-1,4,5,6,7,8-hexahydroimidazo[4,5-d]azepine], the Ki in assay [1] was less than 0.0316 nM. For the same molecule, in assay [2], the IC50 is 1580 to 10000 nM.
Regarding `Cc1cccc(-c2n[nH]cc2-c2ccc3ncc(-c4cn(-c5ccccc5)nn4)cc3n2)n1` [Compound 111, 2-[3-(6-methyl-2-pyridyl)-1H-pyrazol-4-yl]-7-(1-phenyltriazol-4-yl)-1,5-naphthyridine], the Ki in assay [1] is 0.0398 to 0.316 nM. In addition, in assay [2], the IC50 was less than 20 nM.
